Measurements reported in US5096715A, “Method and means for treating alcoholism by extinguishing the alcohol-drinking response using a transdermally administered opiate antagonist” (Alko Ltd., priority 1989, dated 1992).
Entries after “also recorded” stand apart in the source; their conditions may differ.

Experiments:
[1] = cited from earlier work
[2] = human
[3] = several combinations of vehicles and enhancers; cited from earlier work
[4] = humans; cited from earlier work

Row | Compound | half-life in the body [1] | naloxone present to block alcohol reinforcement at end of session ([2]; 4-7 hrs later, transdermal) | systemic delivery rate ([2]; skin area of 900-1000 cm^2) | time to deliver the entire 30 mg systemically ([2]; including lag time of 18 min) | rates for naloxone [3] | severe side-effects [4]
1 | C=CCN1CC[C@]23c4c5ccc(O)c4O[C@H]2C(=O)CC[C@@]3(O)[C@H]1C5 [naloxone] | desirably short half-life | Sufficient quantities of naloxone to block alcohol reinforcement would still be present; also recorded: Sufficient amounts of naloxone to block alcohol reinforcement would still be present | about 5 mg/min | half an hour | over 300 μg/cm^2 /hr | 
2 | O=C1CC[C@@]2(O)[C@H]3Cc4ccc(O)c5c4[C@@]2(CCN3CC2CC2)[C@H]1O5 [naltrexone] |  |  |  |  |  | free of severe side-effects
